Experimental data published in patent publication US8658661B2, “Oxadiazole inhibitors of leukotriene production” (Boehringer Ingelheim International GmbH, priority 2010, dated 2014).

Tests used:
[1] = target: T1, recombinant human FLAP protein (Homo sapiens, UniProt P20292); assay: FLAP binding assay (SPA, displacement of [125I]L-691,831); conditions: membranes of sf9 cells expressing recombinant human FLAP; [125I]L-691,831 probe; read-out: FLAP binding IC50
T1 construct: made in house; host or cells: Sf9 insect cells (100,000×g membrane pellet used)
T1 sequence (P20292 1-161): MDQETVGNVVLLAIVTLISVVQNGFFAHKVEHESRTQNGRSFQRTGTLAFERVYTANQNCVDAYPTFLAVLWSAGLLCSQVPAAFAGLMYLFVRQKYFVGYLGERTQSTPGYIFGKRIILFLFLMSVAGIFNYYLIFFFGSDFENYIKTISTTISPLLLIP
In short: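 Membranes from sf9 cells expressing human FLAP in pH 7.5 Tris buffer (MgCl2, EDTA, PMSF). Non-specific binding defined with 10 μM cold L-691,831.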

[2] = system: synthesis of LTB4 in human whole blood; assay: Human whole blood assay (inhibition of LTB4 synthesis, calcimycin stimulated); type: cell-based; conditions: heparinized human whole blood, calcimycin 20 μM, plasma LTB4
In short: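 Heparinized human whole blood preincubated with compound 15 min at 37 °C, then stimulated with calcimycin (20 μM final) for 30 min at 37 °C. Plasma LTB4 measured after low-speed centrifugation by antibody-based homogeneous time-resolved fluorescence.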

IC50 [1] [nM]	IC50 [2] [nM]	SMILES
12	450	C[C@](c1ccc(-c2cnc(N)cn2)cc1)(c1noc(-c2cnc(N3CCNCC3)cn2)n1)C1CC1 [Example 214, 5-(4-{(S)-1-Cyclopropyl-1-[5-(3,4,5,6-tetrahydro-2H-[1,2′]bipyrazinyl-5′-yl)-[1,2,4]oxadiazol-3-yl]-ethyl}-phenyl)-pyrazin-2-ylamine]
3.6	28	C[C@@](c1ccc(-c2cnc(N)nc2)cc1)(c1noc(-c2cnn(CCN3CCCC3)c2)n1)C1CC1 [Example 215, 5-[4-((R)-1-Cyclopropyl-1-{5-[1-(2-pyrrolidin-1-yl-ethyl)-1H-pyrazol-4-yl]-[1,2,4]oxadiazol-3-yl}-ethyl)-phenyl]-pyrimidin-2-ylamine]
90	1200	CNC1CCN(c2nc(C(C)(c3ccc(-c4cnc(N)nc4)cc3)C(C)C)no2)CC1 (stereo not drawn) [Example 217, 5-(4-{1,2-Dimethyl-1-[5-(4-methylamino-piperidin-1-yl)-[1,2,4]oxadiazol-3-yl]-propyl}-phenyl)-pyrimidin-2-ylamine]
130	920	CC(C)C(C)(c1ccc(-c2cnc(N)nc2)cc1)c1noc(N2CCC(N(C)C)CC2)n1 (stereo not drawn) [Example 218]
39	> 5000	CC(C)C(C)(c1ccc(-c2cnc(N)nc2)cc1)c1noc(N2CCC(C(=O)O)CC2)n1 (stereo not drawn) [Example 219, 1-(3-{1-[4-(2-Amino-pyrimidin-5-yl)-phenyl]-1,2-dimethyl-propyl}-[1,2,4]oxadiazol-5-yl)-piperidine-4-carboxylic acid]
8.5	210	CO[C@@H]1CCN(C(=O)Cn2cc(-c3nc([C@@](C)(c4ccc(-c5cnc(N)nc5)cc4)C4CC4)no3)cn2)C1 [Example 220, 2-[4-(3-{(R)-1-[4-(2-Amino-pyrimidin-5-yl)-phenyl]-1-cyclopropyl-ethyl}-[1,2,4]oxadiazol-5-yl)-pyrazol-1-yl]-1-((R)-3-methoxy-pyrrolidin-1-yl)-ethanone]
6.2	150	CO[C@H]1CCN(C(=O)Cn2cc(-c3nc([C@@](C)(c4ccc(-c5cnc(N)nc5)cc4)C4CC4)no3)cn2)C1 [Example 221, 2-[4-(3-{(R)-1-[4-(2-Amino-pyrimidin-5-yl)-phenyl]-1-cyclopropyl-ethyl}-[1,2,4]oxadiazol-5-yl)-pyrazol-1-yl]-1-((S)-3-methoxy-pyrrolidin-1-yl)-ethanone]
130	1700	CC(C)C(C)(c1ccc(-c2cnc(N)nc2)cc1)c1noc(N2CCC(N)CC2)n1 (stereo not drawn) [Example 222, 5-(4-{1-[5-(4-Amino-piperidin-1-yl)-[1,2,4]oxadiazol-3-yl]-1,2-dimethyl-propyl}-phenyl)-pyrimidin-2-ylamine]
16	350	CC(C)C(C)(c1ccc(-c2cnc(N)nc2)cc1)c1noc(CC(C)(C)O)n1 (stereo not drawn) [Example 225, 1-(3-{1-[4-(2-Amino-pyrimidin-5-yl)-phenyl]-1,2-dimethyl-propyl}-[1,2,4]oxadiazol-5-yl)-2-methyl-propan-2-ol]
2	30	CNc1ncc(-c2ccc([C@](C)(c3noc(-c4cnn(CC(=O)N(C)C)c4)n3)C3CC3)cc2)cn1 [Example 226, 2-[4-(3-{(R)-1-Cyclopropyl-1-[4-(2-methylamino-pyrimidin-5-yl)-phenyl]-ethyl}-[1,2,4]oxadiazol-5-yl)-pyrazol-1-yl]-N,N-dimethyl-acetamide]
99	550	COCCOCc1nc(C(C)(c2ccc(-c3cnc(N)nc3)cc2)C(C)C)no1 (stereo not drawn) [Example 229, 5-(4-{1-[5-(2-Methoxy-ethoxymethyl)-[1,2,4]oxadiazol-3-yl]-1,2-dimethyl-propyl}-phenyl)-pyrimidin-2-ylamine]
3.8	160	CNC(=O)Cn1cc(-c2nc([C@@](C)(c3ccc(-c4cnc(N)nc4)cc3)C3CC3)no2)cn1 [Example 230, 2-[4-(3-{(R)-1-[4-(2-Amino-pyrimidin-5-yl)-phenyl]-1-cyclopropyl-ethyl}-[1,2,4]oxadiazol-5-yl)-pyrazol-1-yl]-N-methyl-acetamide]
120	700	CNC(=O)Cn1cc(-c2nc([C@](C)(c3ccc(-c4cnc(N)nc4)cc3)C3CC3)no2)cn1 [Example 231, 2-[4-(3-{(S)-1-[4-(2-Amino-pyrimidin-5-yl)-phenyl]-1-cyclopropyl-ethyl}-[1,2,4]oxadiazol-5-yl)-pyrazol-1-yl]-N-methyl-acetamide]
37	370	COCCc1nc(C(C)(c2ccc(-c3cnc(N)nc3)cc2)C(C)C)no1 (stereo not drawn) [Example 232, 5-(4-{1-[5-(2-Methoxy-ethyl)-[1,2,4]oxadiazol-3-yl]-1,2-dimethyl-propyl}-phenyl)-pyrimidin-2-ylamine]
89	1300	CC(C)C(C)(c1ccc(-c2cnc(N)nc2)cc1)c1noc(NC2CCN(C)CC2)n1 (stereo not drawn) [Example 236, 5-(4-{1,2-Dimethyl-1-[5-(1-methyl-piperidin-4-ylamino)-[1,2,4]oxadiazol-3-yl]-propyl}-phenyl)-pyrimidin-2-ylamine]
26	470	CC(C)C(C)(c1ccc(-c2cnc(N)nc2)cc1)c1noc(NC2CCC(O)CC2)n1 (stereo not drawn) [Example 237, 4-(3-{1-[4-(2-Amino-pyrimidin-5-yl)-phenyl]-1,2-dimethyl-propyl}-[1,2,4]oxadiazol-5-ylamino)-cyclohexanol]
5	29	CC1(O)CCN(c2nc(C(C)(c3ccc(-c4cnc(N)nc4)cc3)C3CC3)no2)CC1 (stereo not drawn) [Example 238, 1-(3-{1-[4-(2-Amino-pyrimidin-5-yl)-phenyl]-1-cyclopropyl-ethyl}-[1,2,4]oxadiazol-5-yl)-4-methyl-piperidin-4-ol]
4.1	290	CN(C)C(=O)Cn1cc(-c2nc(C(C)(c3ccc(-c4cnc5c(c4)OCCN5)cc3)C3CC3)no2)cn1 (stereo not drawn) [Example 239, 2-[4-(3-{1-Cyclopropyl-1-[4-(3,4-dihydro-2H-pyrido[3,2-b][1,4]oxazin-7-yl)-phenyl]-ethyl}-[1,2,4]oxadiazol-5-yl)-pyrazol-1-yl]-N,N-dimethyl-acetamide]
15	190	Cc1nc(N)ncc1-c1ccc(C(C)(c2noc(-c3cnn(CC(=O)N(C)C)c3)n2)C2CC2)cc1 (stereo not drawn) [Example 240, 2-[4-(3-{1-[4-(2-Amino-4-methyl-pyrimidin-5-yl)-phenyl]-1-cyclopropyl-ethyl}-[1,2,4]oxadiazol-5-yl)-pyrazol-1-yl]-N,N-dimethyl-acetamide]
3.4	170	CN(C)C(=O)Cn1cc(-c2nc(C(C)(c3ccc(-c4cnc5c(c4)CCN5)cc3)C3CC3)no2)cn1 (stereo not drawn) [Example 241, 2-[4-(3-{1-Cyclopropyl-1-[4-(2,3-dihydro-1H-pyrrolo[2,3-b]pyridin-5-yl)-phenyl]-ethyl}-[1,2,4]oxadiazol-5-yl)-pyrazol-1-yl]-N,N-dimethyl-acetamide]
5.7	310	CN(C)C(=O)Cn1cc(-c2nc(C(C)(c3ccc(-c4cnc5[nH]ccc5c4)cc3)C3CC3)no2)cn1 (stereo not drawn) [Example 242, 2-[4-(3-{1-Cyclopropyl-1-[4-(1H-pyrrolo[2,3-b]pyridin-5-yl)-phenyl]-ethyl}-[1,2,4]oxadiazol-5-yl)-pyrazol-1-yl]-N,N-dimethyl-acetamide]
12	170	CN(C)C(=O)Cn1cc(-c2nc(C(C)(c3ccc(-c4cnc(N)c(F)c4)cc3)C3CC3)no2)cn1 (stereo not drawn) [Example 243, 2-[4-(3-{1-[4-(6-Amino-5-fluoro-pyridin-3-yl)-phenyl]-1-cyclopropyl-ethyl}-[1 ,2,4]oxadiazol-5-yl)-pyrazol-1-yl]-N,N-dimethyl-acetamide]
25	270	Cc1nc(N)ccc1-c1ccc(C(C)(c2noc(-c3cnn(CC(=O)N(C)C)c3)n2)C2CC2)cc1 (stereo not drawn) [Example 244, 2-[4-(3-{1-[4-(6-Amino-2-methyl-pyridin-3-yl)-phenyl]-1-cyclopropyl-ethyl}-[1,2,4]oxadiazol-5-yl)-pyrazol-1-yl]-N,N-dimethyl-acetamide]
28	310	Cc1nc(N)cnc1-c1ccc(C(C)(c2noc(-c3cnn(CC(=O)N(C)C)c3)n2)C2CC2)cc1 (stereo not drawn) [Example 245, 2-[4-(3-{1-[4-(5-Amino-3-methyl-pyrazin-2-yl)-phenyl]-1-cyclopropyl-ethyl}-[1,2,4]oxadiazol-5-yl)-pyrazol-1-yl]-N,N-dimethyl-acetamide]
19	430	CN(C)C(=O)Cn1cc(-c2nc(C(C)(c3ccc(-c4cnc(N)c(C(F)(F)F)c4)cc3)C3CC3)no2)cn1 (stereo not drawn) [Example 246, 2-[4-(3-{1-[4-(6-Amino-5-trifluoromethyl-pyridin-3-yl)-phenyl]-1-cyclopropyl-ethyl}-[1,2,4]oxadiazol-5-yl)-pyrazol-1-yl]-N,N-dimethyl-acetamide]
5.9	300	CN(C)C(=O)Cn1cc(-c2nc(C(C)(c3ccc(-c4cnc5[nH]ccc5n4)cc3)C3CC3)no2)cn1 (stereo not drawn) [Example 247, 2-[4-(3-{1-Cyclopropyl-1-[4-(5H-pyrrolo[2,3-b]pyrazin-2-yl)-phenyl]-ethyl}-[1,2,4]oxadiazol-5-yl)-pyrazol-1-yl]-N,N-dimethyl-acetamide]

SMILES	IC50 [1] [nM]	IC50 [2] [nM]
CC(C)C(C)(c1ccc(-c2cnc(N)nc2)cc1)c1noc(N2C3CCC2CC(O)C3)n1 (stereo not drawn) [Example 235, 8-(3-{1-[4-(2-Amino-pyrimidin-5-yl)-phenyl]-1,2-dimethyl-propyl}-[1,2,4]oxadiazol-5-yl)-8-aza-bicyclo[3.2.1]octan-3-ol]	29	780
